Measured values: patent publication US10752640B2, “Compounds active towards bromodomains” (NUEVOLUTION A/S, priority 2014, dated 2020)

biological target: BRD4 protein (Homo sapiens, UniProt O60885); test: FRET assay, half maximal inhibitory concentration (IC50); format: binding; conditions: BRD4 protein 50 nM, Biotin-H4KAc4 peptide 12.5 nM; List of Classification
Experimental: The compounds were biologically evaluated by determining the half maximal inhibitory concentration (IC50) by FRET assay. The IC50 is a measure of the effectiveness of a substance in inhibiting a specific biological or biochemical function.
For IC50 determinations, dose-response curves were generated, using a top concentration of 50 μM compound in 12.5% DMSO, followed by 10-fold dilutions in 12.5% DMSO. The composition of the reaction buffer was 50 mM HEPES, pH 7.5; 100 mM NaCl, 0.05% CHAPS.
The reaction was run in a final volume of 25 μl. The BRD4 protein (16.5 μl) was added to wells of 384w white Optiplates (Perkin Elmer) (50 nM final concentration) and 1 μl of compound dilution of DMSO control. Incubation time was 30 minutes at room temperature. In the next step, 2.5 μl Biotin-H4KAc4 peptide (Millipore 13-379) was added to the wells (final concentration was 12.5 nM), and the plates were incubated for 30 minutes at room temperature. Detection was performed by addition of 5 μl of a mix of mAb GST-XL665 (Cisbio 61GSTXLB) (10 nM final concentration) and Streptavidin Cryptate (Cisbio 610SAKLB) (2.4 nM final conc.) in reaction buffer with 0.4M KF and 0.05% BSA). The plates were incubated for one hour prior to reading on an Envision reader (Perkin Elmer)
Data was analyzed using GraphPad Prism, and IC50 data was obtained using non-linear regression curve fit using log(inhibitor) vs response (variable slope). All compounds were considered active although classified (according to the half maximal inhibitory concentration (IC50) by FRET assay) as follows: […]

Question: `Cc1cc(=O)[nH]c2ccc(NC(=O)c3cc(S(=O)(=O)N4CCOCC4)ccc3N3CCCC3)nc12` [Compound-94, N-(8-methyl-6-oxo-5H-1,5-naphthyridin-2-yl)-5-morpholinosulfonyl-2-pyrrolidin-1-yl-benzamide] was tested. Which IC50 did it give?
Answer: > 10000 nM

Question: For `Cc1cc(O)nc2ccc(NC(=O)c3ccncc3N3CCCC3)cc12` [Compound-95, N-(2-hydroxy-4-methyl-6-quinolyl)-3-pyrrolidin-1-yl-pyridine-4-carboxamide], which IC50 is on record?
Answer: < 200 nM

Question: How did the IC50 turn out when `Cc1cc(O)nc2ccc(NC(=O)c3cccnc3N3CCCC3)cc12` [Compound-96, N-(2-hydroxy-4-methyl-6-quinolyl)-2-pyrrolidin-1-yl-pyridine-3-carboxamide] was run?
Answer: < 200 nM

Question: Which IC50 does the source give for `Cc1cc(O)nc2ccc(NC(=O)c3cccnc3N3CCCC3CN(C)C)cc12` (stereo not drawn) [Compound-97, 2-[2-(dimethylaminomethyl)pyrrolidin-1-yl]-N-(2-hydroxy-4-methyl-6-quinolyl)pyridine-3-carboxamide] here?
Answer: < 200 nM

Question: `COc1cc(O)nc2ccc(NC(=O)c3cc(CN4CCN(C)CC4)ccc3N3CCCC3)cc12` [Compound-98, N-(2-hydroxy-4-methoxy-6-quinolyl)-5-[(4-methylpiperazin-1-yl)methyl]-2-pyrrolidin-1-yl-benzamide] was tested. Which IC50 did it give?
Answer: < 200 nM

Question: With `O=C1CCc2cc(NC(=O)c3cc(S(=O)(=O)N4CCOCC4)ccc3N3CCCC3)ccc2N1` [Compound-100, 5-morpholinosulfonyl-N-(2-oxo-3,4-dihydro-1H-quinolin-6-yl)-2-pyrrolidin-1-yl-benzamide] as the compound, how does the IC50 read?
Answer: 500 to 1000 nM

Question: How did the IC50 turn out when `CC1CC(=O)Nc2ccc(NC(=O)c3cc(CN4CCOCC4)ccc3N3CCCC3)cc21` (stereo not drawn) [Compound-101, N-(4-methyl-2-oxo-3,4-dihydro-1H-quinolin-6-yl)-5-(morpholinomethyl)-2-pyrrolidin-1-yl-benzamide] was run?
Answer: < 200 nM

Question: Which IC50 does the source give for `CC1CC(=O)Nc2ccc(NC(=O)c3cc(S(=O)(=O)N(C)C)ccc3N3CCCC3)cc21` (stereo not drawn) [Compound-102, 5-(dimethylsulfamoyl)-N-(4-methyl-2-oxo-3,4-dihydro-1H-quinolin-6-yl)-2-pyrrolidin-1-yl-benzamide] here?
Answer: < 200 nM

Question: With `CC1(C)CC(=O)Nc2ccc(NC(=O)c3cc(CN4CCOCC4)ccc3N3CCCC3)cc21` [Compound-103, N-(4,4-dimethyl-2-oxo-1,3-dihydroquinolin-6-yl)-5-(morpholinomethyl)-2-pyrrolidin-1-yl-benzamide] as the compound, how does the IC50 read?
Answer: 200 to 500 nM

Question: With `CN(C)S(=O)(=O)c1ccc(N2CCCC2)c(C(=O)Nc2ccc3c(c2)C(C)(C)CC(=O)N3)c1` [Compound-104, N-(4,4-dimethyl-2-oxo-1,3-dihydroquinolin-6-yl)-5-(dimethylsulfamoyl)-2-pyrrolidin-1-yl-benzamide] as the compound, how does the IC50 read?
Answer: < 200 nM

Question: With `Cc1cc(O)nc2ccc(NC(=O)c3cc(N)ccc3-n3cccn3)cc12` [Compound-105, 5-amino-N-(2-hydroxy-4-methyl-6-quinolyl)-2-pyrazol-1-yl-benzamide] as the compound, how does the IC50 read?
Answer: 500 to 1000 nM

Question: How did the IC50 turn out when `CN(C)S(=O)(=O)c1ccc(N2CCCC2)c(C(=O)Nc2cc(F)c3c(c2)C(C)(C)CC(=O)N3)c1` [Compound-106, 5-(dimethylsulfamoyl)-N-(8-fluoro-4,4-dimethyl-2-oxo-1,3-dihydroquinolin-6-yl)-2-pyrrolidin-1-yl-benzamide] was run?
Answer: < 200 nM

Question: With `COc1cc(NC(=O)c2cc(S(=O)(=O)N(C)C)ccc2N2CCCC2)cc2c(C)cc(O)nc12` [Compound-108, 5-(dimethylsulfamoyl)-N-(2-hydroxy-8-methoxy-4-methyl-6-quinolyl)-2-pyrrolidin-1-yl-benzamide] as the compound, how does the IC50 read?
Answer: < 200 nM

Question: `Cc1cc(O)nc2ccc(NC(=O)c3cc(C(F)(F)F)ccc3N3CCCC3)cc12` [Compound-109, N-(2-hydroxy-4-methyl-6-quinolyl)-2-pyrrolidin-1-yl-5-(trifluoromethyl)benzamide] was tested. Which IC50 did it give?
Answer: < 200 nM

Question: How did the IC50 turn out when `Cc1cc(O)nc2ccc(NC(=O)c3cc(S(=O)(=O)N4CCOCC4)ccc3N3CCC(O)C3)cc12` (stereo not drawn) [Compound-110, N-(2-hydroxy-4-methyl-6-quinolyl)-2-(3-hydroxypyrrolidin-1-yl)-5-morpholino-sulfonyl-benzamide] was run?
Answer: < 200 nM

Question: `COC1CCN(c2ccc(S(=O)(=O)N3CCOCC3)cc2C(=O)Nc2ccc3nc(O)cc(C)c3c2)C1` (stereo not drawn) [Compound-111, N-(2-hydroxy-4-methyl-6-quinolyl)-2-(3-methoxypyrrolidin-1-yl)-5-morpholino-sulfonyl-benzamide] was tested. Which IC50 did it give?
Answer: < 200 nM

Question: With `Cc1cc(O)nc2ccc(NC(=O)c3cc(CC#N)ccc3N3CCCC3)cc12` [Compound-112, 5-(cyanomethyl)-N-(4-methyl-2-oxo-1,2-dihydroquinolin-6-yl)-2-(pyrrolidin-1-yl)benzamide] as the compound, how does the IC50 read?
Answer: < 200 nM

Question: `Cc1cc(O)nc2ccc(NC(=O)c3cc(C4(N5CCOCC5)CC4)ccc3N3CCCC3CN(C)C)cc12` (stereo not drawn) [Compound-114, 2-(2-((dimethylamino)methyl)pyrrolidin-1-yl)-N-(2-hydroxy-4-methylquinolin-6-yl)-5-(1-morpholinocyclopropyl) benzamide] was tested. Which IC50 did it give?
Answer: < 200 nM

Question: With `Cc1cc(O)nc2ccc(NC(=O)c3cc(C#N)ncc3N3CCC(F)C3)cc12` (stereo not drawn) [Compound-115, 2-cyano-5-(3-fluoropyrrolidin-1-yl)-N-(2-hydroxy-4-methylquinolin-6-yl) isonicotinamide] as the compound, how does the IC50 read?
Answer: < 200 nM

Question: How did the IC50 turn out when `Cc1cc(O)nc2ccc(NC(=O)c3cc(C#N)ncc3N3CCOCC3)cc12` [Compound-116, 2-cyano-N-(2-hydroxy-4-methylquinolin-6-yl)-5-morpholinoisonicotinamide] was run?
Answer: < 200 nM

Question: `Cc1cc(O)nc2ccc(NC(=O)c3cccnc3N3CCOCC3C)cc12` (stereo not drawn) [Compound-120, N-(2-hydroxy-4-methyl-6-quinolyl)-2-(3-methylmorpholin-4-yl)pyridine-3-carboxamide] was tested. Which IC50 did it give?
Answer: < 200 nM

Question: With `Cc1cc(O)nc2ccc(NC(=O)c3cccnc3N3CCCC3CN(C)C)cc12` (stereo not drawn) [Compound-121, 2-[2-(dimethylaminomethyl)pyrrolidin-1-yl]-N-(2-hydroxy-4-methyl-6-quinolyl)pyridine-3-carboxamide] as the compound, how does the IC50 read?
Answer: < 200 nM

Question: Which IC50 does the source give for `Cc1cc(O)nc2ccc(NC(=O)c3cnccc3N3CCOCC3)cc12` [Compound-123, N-(2-hydroxy-4-methyl-6-quinolyl)-4-morpholino-pyridine-3-carboxamide] here?
Answer: < 200 nM

Question: Which IC50 does the source give for `Cc1cc(O)nc2ccc(NC(=O)c3cnccc3N3CCCC3)cc12` [Compound-124, N-(2-hydroxy-4-methyl-6-quinolyl)-4-pyrrolidin-1-yl-pyridine-3-carboxamide] here?
Answer: 200 to 500 nM

Question: With `Cc1cc2nc(O)cc(C)c2cc1NC(=O)c1cccnc1N1CCOCC1` [Compound-125, N-(2-hydroxy-4,7-dimethyl-6-quinolyl)-2-morpholino-pyridine-3-carboxamide] as the compound, how does the IC50 read?
Answer: 500 to 1000 nM

Question: With `Cc1cc2nc(O)cc(C)c2cc1NC(=O)c1cccnc1N1CCC(F)C1` (stereo not drawn) [Compound-126, 2-(3-fluoropyrrolidin-1-yl)-N-(2-hydroxy-4,7-dimethyl-6-quinolyl)pyridine-3-carboxamide] as the compound, how does the IC50 read?
Answer: 500 to 1000 nM

Question: For `Cc1cc2nc(O)cc(C)c2cc1NC(=O)c1cccnc1N1CCC(F)(F)C1` [Compound-127, 2-(3,3-difluoropyrrolidin-1-yl)-N-(2-hydroxy-4,7-dimethyl-6-quinolyl)pyridine-3-carboxamide], which IC50 is on record?
Answer: 200 to 500 nM

Question: With `CC(C)c1cc(O)nc2ccc(NC(=O)c3cccnc3N3CCOCC3)cc12` [Compound-129] as the compound, how does the IC50 read?
Answer: 1000 to 10000 nM

Question: How did the IC50 turn out when `CN1Cc2cc(NC(=O)c3cccnc3N3CCOCC3)ccc2NC1=O` [Compound-130, N-(3-methyl-2-oxo-1,4-dihydroquinazolin-6-yl)-2-morpholino-pyridine-3-carboxamide] was run?
Answer: 1000 to 10000 nM

Question: With `CN1C(=O)CCc2cc(NC(=O)c3cccnc3N3CCOCC3)ccc21` [Compound-131, N-(1-methyl-2-oxo-3,4-dihydroquinolin-6-yl)-2-morpholino-pyridine-3-carboxamide] as the compound, how does the IC50 read?
Answer: 1000 to 10000 nM

Question: For `Cc1cc(O)nc2ccc(NC(=O)c3cccnc3N3CCC(F)C3)cc12` (stereo not drawn) [Compound-132, 2-(3-fluoropyrrolidin-1-yl)-N-(2-hydroxy-4-methyl-6-quinolyl)pyridine-3-carboxamide], which IC50 is on record?
Answer: < 200 nM

Question: `Cc1cc(O)nc2ccc(NC(=O)c3cccnc3N3CCC(F)(F)C3)cc12` [Compound-133, 2-(3,3-difluoropyrrolidin-1-yl)-N-(2-hydroxy-4-methyl-6-quinolyl)pyridine-3-carboxamide] was tested. Which IC50 did it give?
Answer: < 200 nM

Question: Which IC50 does the source give for `Cc1cc(O)nc2ccc(NC(=O)c3ccc(C(F)(F)F)nc3N3CCCC3)cc12` [Compound-134, N-(2-hydroxy-4-methyl-6-quinolyl)-2-pyrrolidin-1-yl-6-(trifluoromethyl)pyridine-3-carboxamide] here?
Answer: < 200 nM

Question: How did the IC50 turn out when `Cc1cc(O)nc2ccc(NC(=O)c3ccc(C(F)(F)F)nc3N3CCOCC3)cc12` [Compound-135, N-(2-hydroxy-4-methyl-6-quinolyl)-2-morpholino-6-(trifluoromethyl)pyridine-3-carboxamide] was run?
Answer: 200 to 500 nM

Question: Which IC50 does the source give for `Cc1cc(O)nc2c(C)cc(NC(=O)c3cccnc3N3CCOCC3)cc12` [Compound-136, N-(2-hydroxy-4,8-dimethyl-6-quinolyl)-2-morpholino-pyridine-3-carboxamide] here?
Answer: < 200 nM

Question: Which IC50 does the source give for `Cc1cc2nc(O)cc(C)c2cc1NC(=O)c1c(C)ccnc1N1CCOCC1` [Compound-137, N-(2-hydroxy-4,7-dimethyl-6-quinolyl)-4-methyl-2-morpholino-pyridine-3-carboxamide] here?
Answer: 1000 to 10000 nM
